Assay [1] deals with NCI-H441. In words: Cytotoxicity against human H441 cells after 72 hrs by trypan blue cell exclusion assay. The assay is classed as functional, cell-based.
The nature of assay [2]: Cytotoxicity in human H441 cells at 2 uM after 72 hrs by trypan blue cell exclusion assay. It is filed as functional, NCI-H441.
Assay [3] has as its system NCI-H441. In words: Cytotoxicity against human H441 cells by serum lactate dehydrogenase assay. It is filed as functional, cell-based.
In assay [4] the test system is NCI-H441. As to the kind of experiment: Cytotoxicity against human H441 cells by glucosaminidase assay. The assay is classed as functional, cell-based.

The source made the active and inactive calls. No cut-off for these calls is given here.

Our source for the Activity values is ChEMBL document CHEMBL1154024, “Synthesis of radiolabeled cytarabine conjugates” (2009).

Regarding `NNc1ccc(C(=O)Nc2ccn([C@@H]3O[C@H](CO)[C@@H](O)[C@@H]3O)c(=O)n2)cn1`, the Activity entry with NCI-H441 [1] was “Dose-dependent effect”; in assay [2], 55%. Moreover, the result in the assay on NCI-H441 [3] and in the assay with NCI-H441 [4] was Active.
Regarding `Nc1ccn([C@@H]2O[C@H](CO)[C@@H](O)[C@@H]2O)c(=O)n1` [CYTARABINE], the values for the Activity result (in the assay with NCI-H441 [1]; in assay [2]) were “Dose-dependent effect” and 55%, respectively. Also, the outcome in the assay on NCI-H441 [3] and in the assay with NCI-H441 [4] was Active.
